For test [1], the system named is GnRH binding sites of DU145 cells. Kind of test: GnRH analogue binding to DU145 cells (displacement of 125I-buserelin). Set-up: species or system human. The source says:
(§1) Br.~~~~ ~ ~ J. Cace (19) 62 969 ?amla resLd,19 The effects of gonadotrophin releasing hormone analogues in prostate cancer are mediated through specific tumour receptors A. Qayuml, W. Gullick2, R.C. Clayton3, K. Sikora' & J. Waxman' 'Department of Clinical Oncology and 2ICRF Oncology Group, Royal Postgraduate Medical School, and 3Clinical Endocrinology, MRC, Northwick Park Hospital, London, UK. Summary We have investigated the possibility of a direct regulatory effect of gonadotrophin releasing hormone (GnRH) analogues on prostatic cancer cell growth. Here we report high affinity binding (Kd = 50 nM) of a GnRH analogue resulting in biphasic growth modulation of the human androgen-sensitive prostatic cancer cell line LNCaP. […] Seventy-six human benign and malignant tumours were assayed following surgical resection. […] Cancer of the prostate is the second most common cause of malignancy among males. The treatment of prostatic cancer aims to reduce serum androgen concentrations. The long- acting agonist analogues of GnRH have been recently intro- duced as effective alternative therapies to orchiectomy and oestrogen treatment (Waxman, 1987). […] GnRH binding assays Exponentially growing cells were harvested with 0.1% EDTA, washed twice with PBS and counted using 0.2% trypan blue as an indicator. […]
For orientation: Loss of bound radioactivity is the signal in a displacement assay; it reports binding, not function.

The test system of test [2] is GnRH binding sites of LNCaP cells. Kind of test: GnRH analogue binding to LNCaP cells (displacement of 125I-buserelin). Details: species or system human. To be noted: for displacement of labelled buserelin: specificity test, structurally unrelated peptides, LNCaP. The text has this: (§2) Br.~~~~ ~ ~ J. Cace (19) 62 969 ?amla resLd,19 The effects of gonadotrophin releasing hormone analogues in prostate cancer are mediated through specific tumour receptors A. Qayuml, W. Gullick2, R.C. Clayton3, K. Sikora' & J. Waxman' 'Department of Clinical Oncology and 2ICRF Oncology Group, Royal Postgraduate Medical School, and 3Clinical Endocrinology, MRC, Northwick Park Hospital, London, UK. Summary We have investigated the possibility of a direct regulatory effect of gonadotrophin releasing hormone (GnRH) analogues on prostatic cancer cell growth. Here we report high affinity binding (Kd = 50 nM) of a GnRH analogue resulting in biphasic growth modulation of the human androgen-sensitive prostatic cancer cell line LNCaP. […] Seventy-six human benign and malignant tumours were assayed following surgical resection. […] Cancer of the prostate is the second most common cause of malignancy among males. The treatment of prostatic cancer aims to reduce serum androgen concentrations. The long- acting agonist analogues of GnRH have been recently intro- duced as effective alternative therapies to orchiectomy and oestrogen treatment (Waxman, 1987). Their effect on andro- gen dependent cell growth is thought to be mediated through down-regulation of the pituitary-gonadal axis. GnRH agon- ist treatment leads to an initial increase in the serum levels of LH, FSH and androgens and this may be accompanied by tumour flare (Waxman et al., 1985). However, this exacerba- tion of symptoms is not temporally related to changes in serum LH, FSH and androgen concentrations. The differ- ences in the timing of these biochemical and clinical phenomena raises the possibility of a direct effect of GnRH analogues at the level of the tumour. This present study explored the direct effects of GnRH analogues on prostatic cancer cells in culture and in vivo. GnRH analogue binding to human prostatic cancer cells grown in culture and biopsy samples was first examined. GnRH binding sites were characterised in cell lines and in human tumours. The biological effects of GnRH on prostatic cancer cells and a possible autocrine stimulatory role of GnRH-like peptides were investigated. Materials and methods Cell culture The human androgen-sensitive prostatic cancer cell line LNCaP (isolated from lymph node metastasis; Horoszewicz et al., 1983) and the human androgen-insensitive prostatic cell line DU145 (isolated from brain metastasis) were obtained from the American Type Culture Collection. Cul- tures were maintained in exponential growth in RPMI 1640 medium containing 10% charcoal stripped fetal calf serum and 5 fig ml-I insulin. The fetal calf serum used in cell cul- ture medium was treated with dextran and charcoal to remove steroids. Charcoal 0.25% and dextran-T70 0.025% were added to the serum, which was heated at 56'C for 2 h and then centrifuged at 4,000 r.p.m. for O min. The pellet was discarded, serum was filtered through 0.4 ltm filters and used in culture medium. The treated serum was assayed for steroid hormones by the Hammersmith Hospital Endocrine Laboratories and found to be steroid free, Cultures were incubated at 37?C in a humidified atmosphere containing 5% CO2 and subcultured weekly using 0.1% EDTA to remove the cells from the plastic substratum. Under these conditions, the doubling times of DU145 and LNCaP cells were 72 and 144 h respectively. GnRH binding assays Exponentially growing cells were harvested with 0.1% EDTA, washed twice with PBS and counted using 0.2% trypan blue as an indicator. The cells were then resuspended in assay buffer (10 mM Tris-HCI pH 7.6, 1 mM dithiothreitol, 0.3% bovine serum albumin). One million cells per tube were incubated with 200,000 c.p.m. (0.1 nM) of 25I buserelin (125J_ D-Ser (TBU)6-LHRH-ethylamide) (Hoechst AG, Frankfurt), (specific activity 53,000 kBq;bg-') with or without varying concentrations of unlabelled buserelin (O.1-100 nM). Non- specific binding was estimated in the presence of 10 IM unlabelled buserelin. […]

A further test concerns DU145 cells. Kind of test: Biological response study, growth of DU145 cells. It counts as cell-based, human. Particulars: DU145 (androgen-insensitive) cells, 10 days.
Source text: as §1

The next test concerns LNCaP cells. Nature of the test: Biological response study, growth of LNCaP cells. It counts as cell-based, human.
Source text: as §2, with “Under these conditions, the doubling times of DU145 and LNCaP cells were 72 and 144 h respectively.” left out, “indicator.” for “indicator. The cells were then resuspended in assay buffer (10 mM Tris-HCI pH 7.6, 1 mM dithiothreitol, 0.3% bovine serum albumin). One million cells per tube were incubated with 200,000 c.p.m. (0.1 nM) of 25I buserelin (125J_ D-Ser (TBU)6-LHRH-ethylamide) (Hoechst AG, Frankfurt), (specific activity 53,000 kBq;bg-') with or without varying concentrations of unlabelled buserelin (O.1-100 nM). Non- specific binding was estimated in the presence of 10 IM unlabelled buserelin.”

Test [3] is described as follows: GnRH radioimmunoassay, specificity. Particulars: cross-reactivity control, Figure 1; sensitivity 0.25 fmol per tube.
Setting [4] is: 100-fold excess of GnRH antagonist over buserelin, cell numbers, triplicate, representative experiment (Figure 6).

Where two headings read alike, the source gives them in different places.

What is called Kd is the free concentration of one partner at which half of the binding sites on the other are occupied at equilibrium, for simple one-to-one binding.

As to `N[C@@H](CSSC[C@H](N)C(=O)Nc1ccc([N+](=O)[O-])cc1)C(=O)Nc1ccc([N+](=O)[O-])cc1` [L-cystine-bis-(4-nitroanilide)], the “reduction of specific binding of buserelin by protease substrate” value in test [1] (protease substrate final concentration 10 µM (printed "10 gsM")) is 68%; in test [2] (LNCaP cells, protease substrate final concentration 10 µM (printed "10 gsM")) it was 28%.
For “D-Ser (TBU)6-LHRH-ethylamide [buserelin]”, the “response to buserelin treatment (growth)” value is given as “did not show any response” in the test on DU145 cells and “without any biological response” in the test with DU145 cells (listed as GnRH analogue). For the same compound, the Kd turned out to be 10 µM in test [1] (125I buserelin 0.1 nM, 3 h, 4 C, pH 7.6, abstract, read-out: Kd, low-affinity binding in DU145); 40 nM in test [2] (Scatchard transformation of the same data, single class of binding sites in LNCaP cells, read-out: Kd (Scatchard plot)); 50 nM in test [2] (intact LNCaP cells (10^6 per tube), 125I buserelin 0.1 nM, unlabelled buserelin, Tris-HCl pH 7.6, 3 h, 4 C, triplicate, representative experiment, read-out: Kd of GnRH analogue binding in LNCaP). For the same compound, the “growth of the cells at higher concentrations” value in the test on LNCaP cells (10 days, GnRH analogue 100 nM) is “slightly inhibited”. Also, the “stimulation of growth relative to control cultures, total DNA content” value in the test on LNCaP cells (10 days, buserelin 1-10 nM, 10% charcoal stripped FCS, Burton's method, three experiments each in triplicate) is no more than 140%. Moreover, the “stimulation of growth relative to control cultures, cell numbers” value in the test with LNCaP cells (10 days, buserelin 1-10 nM, 10% charcoal stripped FCS, three experiments each in triplicate) is no more than 140%. The “binding sites per cell” value in test [2] (Scatchard transformation, LNCaP cells) is on record as 35,000 binding sites per cell.
Turning to “D-pGlul, D-Phe2, D- Trp3' 6) GnRH [GnRH antagonist]”, in the test with LNCaP cells (setting [4]), the “block of inhibitory effect of buserelin” value is reported as “partially blocked” and the “block of stimulatory effect of buserelin” value was “partially blocked”.
With “bradykinin: structurally unrelated peptide (RPPGFSPFR; Bradykinin; UniProt P01042 381-389, looked up)”, in test [3], the “GnRH-immunoreactivity in GnRH-RIA” value is “did not show any GnRH-immunoreactivity”. Further, in test [2], the “displacement of labelled buserelin” value was “did not displace labelled buserelin”.
For “oxytocin: structurally unrelated peptide”, in that order: “did not show any GnRH-immunoreactivity” and “did not displace labelled buserelin”.

Source of the values: paper PMC1971749, “The effects of gonadotrophin releasing hormone analogues in prostate cancer are mediated through specific tumour receptors” (British Journal of Cancer, 1990).
